Reference: paper PMC9398908, “GLP-1-mediated delivery of tesaglitazar improves obesity and glucose metabolism in male mice” (Nature Metabolism, 2022)
Where “and” joins values, the source holds several entries; their conditions need not be identical. Equal entries are not always repeated.

Assays:
hGLP-1R [1] = target: T1, hGLP-1R (Homo sapiens, UniProt P43220); assay: Ligand-induced hGLP-1R-Rluc8 internalization (loss of BRET with Venus-KRAS) in HEK293T cells; assay type: cell-based; conditions: HEK293 cells transfected with human GLP-1R; dose response, Fig. 1c; in words
T1 construct: host or cells: HEK293T, transient transfection
T1 sequence (P43220 24-463): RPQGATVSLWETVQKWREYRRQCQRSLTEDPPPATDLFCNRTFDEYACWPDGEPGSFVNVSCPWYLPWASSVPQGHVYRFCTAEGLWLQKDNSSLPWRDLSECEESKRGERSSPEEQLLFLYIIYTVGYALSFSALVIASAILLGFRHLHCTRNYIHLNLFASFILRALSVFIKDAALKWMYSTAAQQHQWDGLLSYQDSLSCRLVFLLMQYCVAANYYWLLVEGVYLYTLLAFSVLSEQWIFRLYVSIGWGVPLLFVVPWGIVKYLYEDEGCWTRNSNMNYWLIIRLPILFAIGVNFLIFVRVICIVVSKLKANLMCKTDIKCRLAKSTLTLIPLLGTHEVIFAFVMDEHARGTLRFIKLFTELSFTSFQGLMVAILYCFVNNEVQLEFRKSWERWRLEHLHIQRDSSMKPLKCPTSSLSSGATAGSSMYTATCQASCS
Experimental: (§1) HEK293T cells (700,000 per well) were seeded in six-well plates and incubated to 70% confluency in DMEM (10% FBS, 1% Pen/Strep). Twenty-four hours following seeding, transient transfections were performed using Lipofectamine 2000 (catalogue no. 11668019, Invitrogen) according to the manufacturer’s protocol without including additional transformation carrier DNA.
(§2) Twenty-four hours following transfection, HEK293T cells or MIN6 cells were washed with PBS and resuspended in FluoroBrite phenol red-free complete media (catalogue no. A1896701, Life Technologies) containing 5% FBS and 2 mM of L-glutamine (catalogue no. 25030081, Life Technologies). 100,000 cells per well were plated into poly-D-lysine-coated (catalogue no. P6403, Sigma-Aldrich) 96-well white polystyrene LumiNunc plates (catalogue no. 10072151, Thermo Fisher Scientific). After 24 h, the media was replaced with PBS (catalogue no. 10010056, Gibco) containing 10 μM of coelenterazine-h (catalogue no. S2011, Promega) or 1:500 dilution of NanoGlo (catalogue no. N1110, Promega). BRET measurements were taken every 30 s–2 min using a PHERAstar FS multi-mode microplate reader. […] The resulting ligand-specific ratiometric BRET signals were normalized to vehicle producing the ‘ligand-induced BRET ratio’[37], followed by an additional normalization step to well-specific baseline readings.

DIO mice = assay: Acute i.p. glucose tolerance test in DIO mice 6 h after a single s.c. dose (Fig. 3); assay type: in vivo, mouse; parameters: AOC: unit not given here; conditions: for AOC: AOC of i.p. GTT, DIO mice, 6 h after single s.c. dose, individual animals
Experimental: (§3) Glp1r^−/− mice were kindly provided by D. Drucker (University of Toronto, Canada). All wildtype and knockout mice used in our studies were in-house bred on a C57BL/6J background. Mice were double-housed and kept in a constant environment with the ambient temperature set to 22 ± 2 °C with constant humidity (45–65%) and a 12 h/12 h light/dark cycle with lights off from 06:00 until 18:00. For studies in DIO mice, male C57BL/6J mice were fed with a high-fat diet comprising 58% kilocalories from fat (D12331, Research Diets). db/db mice were fed with a normal chow diet (T1314, Altromin GmbH) throughout the study. At the beginning of each experiment, mice were equally distributed into experimental groups according to their body weight and body composition. All animal studies were approved by the State of Bavaria, Germany, or the Insitutional Animal Care and Use Committee of the University of Cincinnati, OH, USA and conducted on the basis of the underlying animal welfare law of the respective countries. Compounds were dissolved in PBS and were s.c. administered with a volume of 5 μl g^−1 body weight in the indicated doses between 15:00 and 16:00.
(§4) Glucose tolerance was assessed in 6 h fasted mice after i.p injection of 1.75 g glucose per kg body weight (DIO mice). Insulin tolerance was assessed in 6 h fasted mice after i.p. injection of either 0.75 U Insulin per […] body weight (DIO mice) or 1 U Insulin per […] body weight (db/db mice) (Humalog, Eli Lilly). Tail vein blood glucose was subsequently measured using a handheld glucometer (TheraSense Freestyle) at baseline and after 15, 30, 60 and 120 min.

C57BL/6J DIO mice [2] = assay: Fasting blood glucose, insulin and HOMA-IR in DIO mice (Fig. 2e,f; Extended Data Fig. 3c); assay type: in vivo, mouse; conditions: for HOMA IR: Suppl. Fig. 3c
Experimental: as §3

hGLP-1R [3] = target: T1, hGLP-1R; assay: Ligand-induced hGLP-1R-GFP Mini-Gαs recruitment (BRET) in mouse MIN6 β-cells; assay type: cell-based; conditions: Fig. 1d, in words
Experimental: as §1, §2

db/db mice = assay: 4-day treatment of obese db/db mice (50 nmol/kg/day): body weight, food intake, glucose, tolerance test (Fig. 6); assay type: in vivo, mouse; parameters: blood glucose (legend: change in blood glucose) / AOC: unit not given here; conditions: 4 days, 50 nmol kg−1 per day, individual mice
Experimental: as §3, §4

C57BL/6J DIO mice [4] = assay: i.p. insulin tolerance test in DIO mice (Fig. 2g,h; Extended Data Fig. 3a,b); assay type: in vivo, mouse; parameters: unit not given here; conditions: for AOC: ITT, Suppl. Fig. 3b
Experimental: as §4

With `CCO[C@@H](Cc1ccc(OCCc2ccc(OS(C)(=O)=O)cc2)cc1)C(=O)O` [tesaglitazar, (S)-2-ethoxy-3-(4-(4-((methylsulfonyl)oxy)phenethoxy)phenyl) propanoic acid] the GLP-1R internalization (hGLP-1R [1]) was “had no effect”, the AOC (DIO mice; 10 nmol/kg) was 602.5 and 1138 and 938 and 739 and 687.5 and 514.5 and 579.5 and 713.5 and the AOC (DIO mice; 100 nmol/kg) was 808 and 562 and 500.5 and 764.5 and 734.5 and 596.5 and 539.5 and 745.5. The i.p. glucose tolerance (DIO mice; weight-matched DIO mice, single bolus 10 and 100 nmol kg−1, GTT 6 h after dose, Fig. 3a,b, in words) was “acutely worsened i.p. glucose tolerance”, the “blood glucose” value (C57BL/6J DIO mice [2]; DIO mice, Figure 2e, individual mice) was 110 mg/dL and 133 mg/dL and 143 mg/dL and 112 mg/dL and 107 mg/dL and 150 mg/dL and 108 mg/dL and the insulin (C57BL/6J DIO mice [2]; DIO mice, Figure 2f, individual mice) was 1.06 ng/mL and 1.72 ng/mL and 0.73 ng/mL and 1.32 ng/mL and 2.56 ng/mL and 2.63 ng/mL and 1.88 ng/mL and 1.65 ng/mL. For the same compound, the “HOMA IR” value (C57BL/6J DIO mice [2]; animal 1 of the group) was 9.08, the “HOMA IR” value (C57BL/6J DIO mice [2]; animal 2 of the group) was 17.60 and the “HOMA IR” value (C57BL/6J DIO mice [2]; animal 3 of the group) was 17.24. For the same compound, the “HOMA IR” value (C57BL/6J DIO mice [2]; animal 4 of the group) was 17.30, the “HOMA IR” value (C57BL/6J DIO mice [2]; animal 5 of the group) was 10.92 and the “HOMA IR” value (C57BL/6J DIO mice [2]; animal 6 of the group) was 7.15. The “HOMA IR” value (C57BL/6J DIO mice [2]; animal 7 of the group) was 14.05, the “HOMA IR” value (C57BL/6J DIO mice [2]; animal 8 of the group) was 6.44 and the “GLP-1R-mediated Gαs recruitment” value (hGLP-1R [3]) was “had no effect”. The “blood glucose (plasma glucose)” value (db/db mice; Fig. 6c) was 482 and 462 and 314 and 500 and 452 and 446, the AOC (db/db mice; Fig. 6f, baseline-corrected) was 9 and 124.5 and 63.27 and 252.8 and 257.2 and 64 and the “blood glucose (legend: change in blood glucose)” value (db/db mice; Fig. 6d) was 33 and 120 and -49 and 69 and 52 and 7. The AUC (C57BL/6J DIO mice [4]; DIO mice, Figure 2h, AUC of the insulin tolerance test, individual mice, one conjugate mouse missinjected) was 78.83 and 85.05 and 79.73 and 58.88 and 108.1 and 99.38 and 88.2 and 80.48, the AOC (C57BL/6J DIO mice [4]; animal 1 of the group) was 151.5 and the AOC (C57BL/6J DIO mice [4]; animal 2 of the group) was 33. For the same compound, the AOC (C57BL/6J DIO mice [4]; animal 3 of the group) was 29.64, the AOC (C57BL/6J DIO mice [4]; animal 4 of the group) was 82.26 and the AOC (C57BL/6J DIO mice [4]; animal 5 of the group) was 109.5. It also gave an AOC (C57BL/6J DIO mice [4]; animal 6 of the group) of 165, an AOC (C57BL/6J DIO mice [4]; animal 7 of the group) of 167 and an AOC (C57BL/6J DIO mice [4]; animal 8 of the group) of 172.
